These results are taken from US6069132A, “Phosphazole compounds” (priority 1997, dated 2000).

≈ marks a conversion by molar mass, not a printed value. Some results are limits rather than exact numbers.

In series [1] the test system is TNFα. Conditions: by inhibition of PDE activity; cited from earlier work.
Series [2] is described as follows: Cytotoxicity on growing THP-1 cells (MTS assay). It is filed as cell-based, human. The conditions noted are these: human, thp-1 cells; Table 2; drug dose required to inhibit logphase growing cells by 50%; read-out: TC50 Growing THP-1. The method, then:
Cytotoxicity Analysis. The cytotoxicity of the compounds were assayed using the CellTiter 96™ Aqueous Non-Radioactive Cell Proliferation (MTS) Assay kit obtained from Promega (Madison, Wis.) following the instructions provided by the supplier. The viable cell number was determined by trypan blue staining and cells (THP-1) were resuspended in PRMI supplemented with 10% FBS (GIBCO). Eighty microliters of cell suspension (1.7×10^4cells/well) was dispensed onto a 96-well microtiter plates. At this time 20 μL of drug (or control) was added to appropriate wells. Each concentration was assayed in quadruplicate. The plates were incubated at 37° C. in a humidified 5% CO2 atmosphere for 4 days and MTS assay […] for each concentration and the data obtained was used to calculate TC50 (the concentration of the compound necessary to inhibit the cell growth by 50%) for each compound.

For series [3], the system named is TNFα. Nature of the series: Inhibition of TNFα production in LPS-stimulated THP-1 cells (ELISA). It is filed as cell-based, human. Conditions: for IC50: Homo sapiens, Table 2, LPS-stimulated THP-1, 6 h post-stimulation. How it is done: (§1) Cell line. THP-1 cells (human monocyte) were maintained in RPMI 1640 medium containing 25 mM Hepes buffer, 2 mM L-glutamine, 50 units of penicillin per mL, 50 μg of streptomycin sulfate per mL, and 10% heat-inactivated fetal bovine serum (FBS) in a humidified incubator containing 5% CO2. The cells were split 1:4 weekly as recommended by the American Type Culture Collection (ATCC).
(§2) TNFα assay. Varying concentrations of the test compound or control compound were added to THP-1 cells plated at a density of 1×10^6cells/mL in 600 μL of 10% RPMI in a 48 well plate. After one hour the cells were stimulated with 0.5 μg of lipopolysaccharide (LPS; Sigma, lot number 43H40491) per mL. Six hours post-stimulation supernatants were collected and assayed for TNFα or IL-1β production using a commercially available cytokine detection ELISA (Enzyme Linked Immunosorbent Assay) kit according to the suppliers instructions. A suitable assay kit may be obtained from Biosource, or R and D systems. A novel xanthine analog, HWA-3138, having the structure (as shown below) was used as the control compound (30) in this study to monitor the response of the THP-l cells. Xanthine analogs are known inhibitors of TNFα but not IL-1β. In the following experiments compound HWA-3138 was used as a positive control. [drawing 58]
Time of Addition. Varying concentrations of test or control compounds were added to THP-1 cells (1×10^6 cells/mL) at different time points post-stimulation using 0.5 μg of LPS (Sigma, lot number 43H40491) per mL in 300 μL of 10% RPMI in a 48 well plate. Six hours post-stimulationsupernatants were collected and assayed for TNFα or IL-1β production using a Biosource cytokine detection ELISA (Enzyme Linked Immunosorbent Assay) kit according to the supplier's instructions.
The membrane bound TNFα was separated from the free TNFα in the culture medium at 6 hours post-LPS stimulation as follows: The corresponding cells were centrifuged at 3500 rpm (~1,000×g) for 6 min. The supernatants were removed and the cell pellets were then resuspended in 200 μL of 0.25 mM Tris-HCl (pH 7.4). The cell associated TNFα was prepared by freezing the cell suspension in dry ice/ethanol and thawing at 37° C. three times with Vortexing in-between freeze-thaw cycles. Each cycle was 4-5 min apart.
To determine the long-term effects of phosphazole compound T70241 on TNFα production after a single treatment, THP-1 cells were pre-incubated with T70241, washed and resuspended in drug free medium. The xanthine analog HWA-3138 was used as a control.

The test system of the next series is IL-1β. Nature of the series: Inhibition of IL-1β production in LPS-stimulated THP-1 cells (ELISA). Format: cell-based, human. Conditions: for IC50: Homo sapiens, Table 2, LPS-stimulated THP-1, 6 h post-stimulation, read-out: IC50 IL-1β in THP-1 cells. How it is done:
as §1
as §2, with “58] […]” for “58]”
THP-1 cells were cultured and IL-1β inhibition assays were conducted as described for TNFα in Example 46, except a commercially available IL-1β assay kit, obtained from R and D Systems, Minneapolis, Minn., was used instead of the TNFα kit.
With reference now to FIG. 8, for each concentration of T70241 tested, the membrane bound IL-1β was separated from the IL-1β found free in the culture medium at 6 hours post-LPS stimulation as described in Example 46 for TNFα, and the percent inhibition of each fraction was graphed.

The next series has as its system HCMV. The conditions noted are these: cited from earlier work.
Series [4] is described as follows: Cytotoxicity on growing Vero cells (MTS). Format: cell-based. The conditions noted are these: african green monkey, Table 4, 50% inhibition of logphase growing cells, read-out: TC50 Growing Vero. How it is done:
(§3) Cell Culture. Vero (African Green Monkey kidney cells) and MRC-5 (diploid Human Embryonic Lung fibroblasts) cells were obtained from the American Type Culture Collection (ATCC) and were grown in minimal essential medium (MEM) with Earl's salts and glutamine (GIBCO BRL, Life Technologies, Inc.) with 10% heat inactivated fetal bovine serum (GIBCO BRL) and penicillin (100 μg/mL)/streptomycin (100 μg/mL).
(§4) Cytotoxicity Analysis. The cytotoxicity of the compound was assayed using few the CellTiter 96™ Aqueous Non-Radioactive Cell Proliferation (MTS) Assay (Promega). Briefly, viable cell number was determined by trypan blue staining and cells (MRC-5 and Vero) were resuspended in minimal essential medium (MEM) supplemented with 10% FBS (GIBCO). Eighty microliters of cell suspension (1.7×10^4 cells/well) was dispensed onto a 96-well microtiter plates. At this time 20 μL of drug (or control) was added to appropriate wells. Each concentration was assayed in quadruplicate. The plates were incubated at 37° C. in a humidified 5% CO2 atmosphere for 4 days and MTS assay was performed according to the manufacturer's instructions. The average absorbence of the sample was graphed for each concentration and the data obtained was used to calculate TC50 (the concentration necessary to give one-half maximum growth) for each compound.

The nature of series [5]: Cytotoxicity on growing MRC-5 cells (MTS). Conditions: human, mrc-5 cells; Table 4; 50% inhibition of logphase growing cells; read-out: TC50 Growing MRC-5. Format: cell-based, human. How it is done: as §3, §4
The next series concerns HSV-2. Nature of the series: HSV-2 CPE assay in Vero cells. Format: cell-based. The conditions noted are these: Human alphaherpesvirus 2, Vero.
A short description of series [6]: Cytotoxicity on static Vero cells. It is filed as cell-based. The conditions noted are these: african green monkey, Table 4, 50% cell death (static cells), read-out: TC50 Static Vero. The method, then:
as §3, §4

For another series, the system named is HSV-1. In words: HSV-1 CPE assay in Vero cells. Format: cell-based. The conditions noted are these: Human alphaherpesvirus 1, Vero.
The subject of a further series is HCMV (Town strain). In words: HCMV plaque reduction (CPE) assay in MRC-5 cells. It is filed as cell-based, human cytomegalovirus. Conditions: Human betaherpesvirus 5, MRC5; Table 4; read-out: IC50 HCMV. How it is done:
The adenine analog phosphazole (compound T70241) was assayed for antiviral activity using a HCMV plaque reduction assay, in accordance with known methods such as that described in U.S. Pat. No. 5,446,045.
as §3
CMV Cytopathic Effect (CPE) Assay. Assays were performed essentially as described by Lewis et al. (111), which report is incorporated herein by reference. MRC-5 cells (100,000 cells/well) were seeded in 24-well plates overnight. Medium was then removed and wells were rinsed once with 250 μL of 2% FCS-MEM before adding 40-50 pfu of HCMV (Town strain) to each well. After 2 hours of virus adsorption, the medium was removed and the cells were rinsed once with 2% FCS-MEM. Varying concentrations of the phosphazole compound in the culture medium (1 mL) was then added to appropriate wells and plates were incubated for 5-6 days at 37° C. in a humidified 5% CO2 atmosphere. Each concentration was tested in duplicate wells.
The extent of the plaque reduction was quantitated by removing the media and adding 200 μL of 0.1% crystal violet in 20% methanol to all wells. The crystal violet was then removed after 10 min staining at room temperature by rinsing in the sink with tap water and the plates dried overnight. The plaques were then counted using a Nikon inverted microscope.

Series [7] in a line: Cytotoxicity on static MRC-5 cells. Format: cell-based. Conditions: human, Table 4, 50% cell death (static cells), read-out: TC50 Static MRC-5. The method, then:
as §3, §4

Regarding `CC(=O)CCCCn1c(=O)c2c(ncn2C)n(C)c1=O` [pentoxifylline], in the series with TNFα [1], the “suppression of TNFα production” value is “suppression of TNFα production”.

For `Nc1ncnc2pcn([C@@H]3O[C@H](CO)[C@@H](O)[C@H]3O)c12` (stereo partly drawn) [T70264, 7-Amino-1-(β-D-ribofuranosyl)-1,3-azaphospholo-[4,5-d]pyrimidine], in series [2], the CC50 at 96 h came out at 118 µg/mL (≈ 413 µM). The values for the IC50 in the series with TNFα [3] and in the series with IL-1β were 126 µg/mL (≈ 444 µM) and above 100 µg/mL, respectively.

As to `Nc1ncnc2pcn([C@H]3C[C@H](O)[C@@H](CO)O3)c12` (stereo partly drawn) [T70265, 7-Amino-1-(2-deoxy-β-D-eythro-pentofuranosyl)-1,3-azaphospholo[4,5-d]pyrimidine], the CC50 at 96 h in [2] is 105 µg/mL (≈ 390 µM). Besides, the IC50 is 26.2 µg/mL (≈ 97.6 µM) in the series on TNFα [3] and above 100 µg/mL in the series with IL-1β.

With `O=c1[nH]cnc2pc[nH]c12` (centres unmarked) [T70256, 1,3-azaphospholo[4,5-d]pyrimidin-7(1H,6H)-one], the IC50 with TNFα [3] is 168 µg/mL (≈ 1100 µM); with IL-1β it was 170 µg/mL (≈ 1110 µM).

With `N#Cc1cn([C@@H]2O[C@H](CO)[C@@H](O)[C@@H]2O)c2ncnc(N)c12` [ara-toyocamycin], in the series on HCMV, the “activity against HCMV” value is “selective activity against HCMV”.

For the compound `Nc1ncnc2nc[nH]c12` [Adenine, reference compound], the IC50 with TNFα [3] and with IL-1β was above 250 µg/mL throughout.

On to `Nc1ncnc2pcn(COC(CO)CO)c12` (centres unmarked) [T70269, 7-Amino-1-[(1,3-dihydroxy-2-propoxy)methyl]-1,3-azaphospholo [4,5-d]pyrimidine], for which the CC50 at 96 h in series [4] is 41.4 µg/mL (≈ 162 µM); in [5], above 50 µg/mL; in series [6] it was above 50 µg/mL; in series [7] it was above 50 µg/mL. Moreover, the IC50 with HSV-2 is 27.8 µg/mL (≈ 108 µM); in the series on HSV-1 it was 2.75 µg/mL (≈ 10.7 µM); in the series with HCMV (Town strain), 26.1 µg/mL (≈ 102 µM); in the series with TNFα [3], above 100 µg/mL; in the series on IL-1β it was above 100 µg/mL.

As to `NC(=O)c1cn([C@H]2C[C@H](O)[C@@H](CO)O2)c2ncnc(N)c12` [2'-deoxysangivamycin], the “activity against HCMV” value in the series on HCMV is listed as “selective activity against HCMV”.

Regarding `Cn1c(=O)c2c(pcn2C)n(C)c1=O` (centres unmarked) [T70271, 1,4,6-Trimethyl-1,3-azaphospholo[4,5-d]pyrimidine-5,7-dione], the IC50 in the series with TNFα [3] was 37.3 µg/mL (≈ 177 µM); with IL-1β, above 250 µg/mL.

Regarding `Nc1nc2c(ncn2COCCO)c(=O)[nH]1` [ACV, acyclovir, reference compound], the CC50 at 96 h in series [4], in series [5], in [6] and in series [7] was above 250 µg/mL throughout. Also, the IC50 in the series on HSV-2 (Table 4) is 0.74 µg/mL (≈ 3.29 µM); in the series on HSV-1 (Table 4), 0.1 µg/mL (≈ 0.444 µM).

Turning to `Nc1ncnc2c1ccn2[C@@H]1O[C@H](CO)[C@@H](O)[C@@H]1F` [arafluoro-tubercidin], the “activity against HCMV” value in the series with HCMV is listed as “selective activity against HCMV”.

As for `Cn1c(=O)n(CCCCC(C)(C)O)c(=O)c2nc[nH]c21` [HWA-3138, reference compound], the CC50 at 96 h in series [2] worked out at 316 µg/mL (≈ 1130 µM). Moreover, the “inhibition of TNFα production” value in the series on TNFα [3] (10 and 100 μg/mL, THP-1, 6 h post-stimulation (FIG. 2)) is “no inhibition”. In addition, the figures for the concentration for half-maximal inhibition (IC50) with TNFα [3] and with IL-1β were 255 µg/mL (≈ 908 µM) and above 500 µg/mL, respectively. In addition, the “inhibition of IL-1β production” value in the series on IL-1β (10-250 μg/mL, THP-1 (FIG. 6)) is recorded as “does not inhibit IL-1β production”.

As for `O=c1[nH]c(=O)c2[nH]cpc2[nH]1` (centres unmarked) [T70270, 1,3-Azaphospholo[4,5-d]pyrimidine-5,7(1H, 4H,6H) -dione], the IC50 was 239 µg/mL (≈ 1410 µM) with TNFα [3] and above 250 µg/mL with IL-1β.

In the case of `Nc1ncnc2pcn(COCCO)c12` (centres unmarked) [T70268, 7-Amino-1-[(2-hydroxyethoxy)methyl]-1,3-azaphospholo-[4,5-d]pyrimidine], the CC50 at 96 h in [4], in series [5], in series [6] and in [7] was above 50 µg/mL in each case. Moreover, the IC50 with HSV-2 (Table 4) is above 50 µg/mL; with HSV-1 (Table 4) it was above 50 µg/mL; in the series on HCMV (Town strain) it was above 50 µg/mL; in the series on TNFα [3], above 100 µg/mL; in the series with IL-1β, above 100 µg/mL.
